35 compounds from patent publication US20240350643A1, “PROTEIN DEGRADATION AGENT” (SUZHOU KINTOR PHARMACEUTICALS, INC., priority 2021, published 2024) can be followed below.

Test [1] has as its target T1, c-Myc protein (Homo sapiens, UniProt P01106).
T1 construct: endogenous in cells; host or cells: HL60 cells
In words: Ability of compounds to degrade c-Myc protein in HL60 cells (ELISA). The settings on record: HL-60, 1 μM compound, 24 h, read-out: HL60 cells Protein degradation rate (1 μM). The class given is cell-based. (In general: In an ELISA, binding on a coated surface is turned into a signal by an enzyme label.)

Test [2] concerns HL60 cells. Description: Anti-proliferation ability of compounds on HL60 cells (CTG). The class given is cell-based, human. The settings on record: Homo sapiens, HL-60, 72 h, 3 days, CellTiter-Glo, read-out: HL60 cells Proliferation inhibitory activity. The method in brief:
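HL60 cells (20000/well) exposed to serially diluted compounds (0.1% DMSO vehicle control) for 3 days. Viability read by CellTiter-Glo luminescence; IC50 fitted from inhibition rates.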
For orientation: In ATP-based viability assays light output follows the ATP content of the culture.

Bounds are passed on as bounds.

T1 sequence (P01106 whole entry): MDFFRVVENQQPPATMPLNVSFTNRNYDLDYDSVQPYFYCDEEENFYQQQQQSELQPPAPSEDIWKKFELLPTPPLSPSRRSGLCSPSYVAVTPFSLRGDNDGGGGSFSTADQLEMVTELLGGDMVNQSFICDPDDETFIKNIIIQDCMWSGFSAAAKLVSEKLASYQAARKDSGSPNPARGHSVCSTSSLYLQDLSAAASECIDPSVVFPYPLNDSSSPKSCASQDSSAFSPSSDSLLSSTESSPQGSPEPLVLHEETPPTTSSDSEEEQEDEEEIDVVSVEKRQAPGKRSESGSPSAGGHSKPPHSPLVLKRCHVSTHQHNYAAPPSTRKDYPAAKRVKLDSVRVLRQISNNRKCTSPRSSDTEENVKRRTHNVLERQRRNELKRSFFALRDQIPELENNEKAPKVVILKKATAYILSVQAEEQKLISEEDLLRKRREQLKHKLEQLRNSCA

Take `O=C(Cc1ccc2ccccc2c1)NCCCCCCNC(=O)c1ccc2c(c1)C(=O)N(C1CCC(=O)NC1=O)C2=O` (stereo not shown) [A9]: the inhibition at 1 µM in test [1] lay in the range of 30 to 60%. Moreover, in test [2], the IC50 came out at 570 ± 38 nM.

Consider `O=C1CCC(N2C(=O)c3ccc(C(=O)NC[C@H]4CC[C@H](CNC(=O)Nc5cccc6ccncc56)CC4)cc3C2=O)C(=O)N1` (stereo partly shown) [A48], for which the inhibition at 1 µM in test [1] lay in the range of 60 to 90%. In test [2], the IC50 came out at 3579 ± 29 nM.

As for `O=C(Cn1c2ccccc2c2cccnc21)NCCCCCCNC(=O)c1ccc2c(c1)C(=O)N(C1CCC(=O)NC1=O)C2=O` (stereo not shown) [A2], in test [1], the inhibition at 1 µM was 30 to 60%. Besides, the IC50 in test [2] is 50.7 ± 11.4 nM.

For `O=C(Cc1c(F)ccc2ccccc12)NCc1ccc(CNCc2ccc3c(c2)CN(C2CCC(=O)NC2=O)C3=O)cc1` (stereo not shown) [A195], the inhibition at 1 µM in test [1] fell in the range of 60 to 90%. Further, in test [2], the IC50 came to 1.4 ± 0.01 nM.

For `O=C(CCn1c2ccccc2c2ccccc21)NCCCCCCNC(=O)c1ccc2c(c1)C(=O)N(C1CCC(=O)NC1=O)C2=O` (stereo not shown) [A13], in test [1], the inhibition at 1 µM is 10 to 30%. Further, the IC50 in test [2] was found to be 1270 ± 51 nM.

Regarding `O=C(Cn1c2ccccc2c2ccccc21)NC[C@H]1CC[C@H](CNC(=O)c2ccc3c(c2)C(=O)N(C2CCC(=O)NC2=O)C3=O)CC1` (stereo partly shown) [A23], the inhibition at 1 µM in test [1] lay in the range of 30 to 60%. Further, the IC50 in test [2] worked out at 55.4 ± 6.7 nM.

For `O=C(CN1CCc2cccnc21)NCc1ccc(CNC(=O)c2ccc3c(c2)CN(C2CCC(=O)NC2=O)C3=O)cc1` (stereo not shown) [A203], the inhibition at 1 µM in test [1] lay in the range of 60 to 90%. Further, in test [2], the IC50 was found to be 6.6 ± 0.8 nM.

Turning to `O=C(Cc1cccc2ccccc12)NCCc1ccc(NC(=O)c2ccc3c(c2)C(=O)N(C2CCC(=O)NC2=O)C3=O)cc1` (stereo not shown) [A39], in test [1], the inhibition at 1 µM is 60 to 90%. Also, in test [2], the IC50 is 979 ± 80.2 nM.

With `N#CCCN(CCn1c2ccccc2c2cccnc21)Cc1ccc(CNC(=O)c2ccc3c(c2)C(=O)N(C2CCC(=O)NC2=O)C3=O)cc1` (stereo not shown) [A93], in test [1], the inhibition at 1 µM is 60 to 90%. Further, in test [2], the IC50 is 171 ± 60.4 nM.

Regarding `CN(CCn1c2ccccc2c2cccnc21)C(C)(C)c1ccc(CNC(=O)c2ccc3c(c2)C(=O)N(C2CCC(=O)NC2=O)C3=O)cc1` (stereo not shown) [A151], in test [1], the inhibition at 1 µM was 60 to 90%. Besides, the IC50 in test [2] stood at 11.3 ± 4.7 nM.

As for `CN(CCc1cccc2ccccc12)Cc1ccc(C(C)(C)NC(=O)c2ccc3c(c2)C(=O)N(C2CCC(=O)NC2=O)C3=O)cc1` (stereo not shown) [A147], the inhibition at 1 µM in test [1] lay in the range of 60 to 90%. Also, the IC50 in test [2] was found to be 16.7 ± 9.5 nM.

Consider `O=C1CCC(N2C(=O)c3ccc(C(=O)NCc4ccc(NC(=O)Cc5cccc6ccccc56)cc4)cc3C2=O)C(=O)N1` (stereo not shown) [A44], for which the inhibition at 1 µM in test [1] was 30 to 60%. For the same compound, in test [2], the IC50 turned out to be 5400 ± 683 nM.

On to `O=C(Cn1c2ccccc2c2cccnc21)NCc1ccc(CNC(=O)c2ccc3c(c2)C(=O)N(C2CCC(=O)NC2=O)C3=O)cc1F` (stereo not shown) [A108], for which the inhibition at 1 µM in test [1] was 60 to 90%. The IC50 in test [2] worked out at 2.7 ± 1.8 nM.

With `CN(CCc1ccc(Cl)cc1Cl)Cc1ccc(CC(=O)Nc2ccc3c(c2)CN(C2CCC(=O)NC2=O)C3=O)c(F)c1` (stereo not shown) [A174], in test [1], the inhibition at 1 µM lay in the range of 60 to 90%. Moreover, in test [2], the IC50 was less than 3 nM.

`CN(CCc1cccc2ccccc12)C1(c2ccc(CNC(=O)c3ccc4c(c3)C(=O)N(C3CCC(=O)NC3=O)C4=O)cc2)CC1` (stereo not shown) [A143]: in test [1], the inhibition at 1 µM is 60 to 90%. For the same compound, in test [2], the IC50 stood at 22.9 ± 3 nM.

Regarding `Cc1ccccc1CC(=O)NCc1ccc(CNC(=O)c2ccc3c(c2)C(=O)N(C2CCC(=O)NC2=O)C3=O)cc1` (stereo not shown) [A68], the inhibition at 1 µM in test [1] was 60 to 90%. The IC50 in test [2] turned out to be 1000 ± 480 nM.

For the compound `O=C(Cc1cccc2ccc(F)cc12)NCc1ccc(CNC(=O)c2ccc3c(c2)CN(C2CCC(=O)NC2=O)C3=O)cc1` (stereo not shown) [A155], in test [1], the inhibition at 1 µM fell in the range of 60 to 90%. Also, the IC50 in test [2] is 3 ± 0.6 nM.

As for `CN(CCn1c2ccccc2c2cccnc21)Cc1ccc(CNC(=O)c2ccc3c(c2)C(=O)N(C2CCC(=O)NC2=O)C3=O)nc1` (stereo not shown) [A127], the inhibition at 1 µM in test [1] lay in the range of 60 to 90%. The IC50 in test [2] is 3.6 ± 0.1 nM.

`COc1ccccc1CCC(=O)NCc1ccc(CNC(=O)c2ccc3c(c2)C(=O)N(C2CCC(=O)NC2=O)C3=O)cc1` (stereo not shown) [A63]: in test [1], the inhibition at 1 µM fell in the range of 60 to 90%. Further, the IC50 in test [2] worked out at 702 ± 33.8 nM.

Regarding `O=C1CCC(N2C(=O)c3ccc(CCCCCCC(=O)N(Cc4ccccc4)Cc4ccccc4)cc3C2=O)C(=O)N1` (stereo not shown) [A21], in test [1], the inhibition at 1 µM is 10 to 30%. Moreover, the IC50 in test [2] was 178 ± 68.4 nM.

On to `O=C(Cc1cccc2cccnc12)NCc1ccc(CNCc2ccc3c(c2)C(=O)N(C2CCC(=O)NC2=O)C3=O)cc1` (stereo not shown) [A187], for which the inhibition at 1 µM in test [1] is 60 to 90%. For the same compound, in test [2], the IC50 stood at 9.2 ± 0.5 nM.

For `O=C1CCC(N2C(=O)c3ccc(C(=O)NCCCCCCNC(=O)NC4c5ccccc5-c5ccccc54)cc3C2=O)C(=O)N1` (stereo not shown) [A10], in test [1], the inhibition at 1 µM lay within 10 to 30%. Further, the IC50 in test [2] came out at 1213 ± 4 nM.

`CN(CCn1c2ccccc2c2cccnc21)Cc1ccc(C(C)(C)NC(=O)c2ccc3c(c2)C(=O)N(C2CCC(=O)NC2=O)C3=O)cc1` (stereo not shown) [A148]: the inhibition at 1 µM in test [1] lay in the range of 60 to 90%. The IC50 in test [2] worked out at 12 ± 8.1 nM.

For the compound `CC(=O)N(CCc1cccc2ccccc12)Cc1ccc(CNC(=O)c2ccc3c(c2)C(=O)N(C2CCC(=O)NC2=O)C3=O)cc1` (stereo not shown) [A79], in test [1], the inhibition at 1 µM is 60 to 90%. Further, in test [2], the IC50 is 21.7 nM.

With `CN(CCc1cccc2ccccc12)Cc1ccc(CNCc2ccc3c(c2)C(=O)N(C2CCC(=O)NC2=O)C3=O)cc1` (stereo not shown) [A181], in test [1], the inhibition at 1 µM fell in the range of 60 to 90%. Further, in test [2], the IC50 was found to be 2 ± 1 nM.

Regarding `O=C(Cc1c(F)ccc2ccccc12)NCc1ccc(CNC(=O)c2ccc3c(c2)C(=O)N(C2CCC(=O)NC2=O)C3=O)cc1` (stereo not shown) [A35], the inhibition at 1 µM in test [1] is 60 to 90%. For the same compound, in test [2], the IC50 was 10.9 ± 4.8 nM.

For `O=C(CN1CCCc2ccccc21)NCc1ccc(CC(=O)Nc2ccc3c(c2)CN(C2CCC(=O)NC2=O)C3=O)cc1` (stereo not shown) [A201], the inhibition at 1 µM in test [1] was 60 to 90%. Also, the IC50 in test [2] worked out at 2 ± 0.9 nM.

Take `O=C(CN1c2ccccc2Oc2ccccc21)NCCCCCCNC(=O)c1ccc2c(c1)C(=O)N(C1CCC(=O)NC1=O)C2=O` (stereo not shown) [A7]: the inhibition at 1 µM in test [1] was in the range of 30 to 60%. Further, the IC50 in test [2] was determined as 320 ± 38 nM.

As for `CC(C)C(=O)N(CCc1cccc2ccccc12)Cc1ccc(CNC(=O)c2ccc3c(c2)C(=O)N(C2CCC(=O)NC2=O)C3=O)cc1` (stereo not shown) [A80], in test [1], the inhibition at 1 µM is 60 to 90%. Also, in test [2], the IC50 was less than 3 nM.

In the case of `CN(CCc1ccc(Cl)cc1Cl)Cc1ccc(CNCc2ccc3c(c2)C(=O)N(C2CCC(=O)NC2=O)C3=O)cc1` (stereo not shown) [A185], in test [1], the inhibition at 1 µM lay in the range of 60 to 90%. Moreover, the IC50 in test [2] amounted to 7.5 ± 1.1 nM.

On to `O=C1CCC(N2C(=O)c3ccc(C(=O)NCc4ccc(C5(NC(=O)Cc6cccc7ccccc67)CC5)cc4)cc3C2=O)C(=O)N1` (stereo not shown) [A141], for which, in test [1], the inhibition at 1 µM is 60 to 90%. Further, in test [2], the IC50 is 6.5 ± 0.3 nM.

With `O=C(Cc1cccc2ccccc12)NCc1csc(CNC(=O)c2ccc3c(c2)C(=O)N(C2CCC(=O)NC2=O)C3=O)n1` (stereo not shown) [A135], the inhibition at 1 µM in test [1] was 30 to 60%. The IC50 in test [2] was 1710 ± 120 nM.

With `COc1cc(CNC(=O)Cc2cccc3ccccc23)ccc1CNC(=O)c1ccc2c(c1)C(=O)N(C1CCC(=O)NC1=O)C2=O` (stereo not shown) [A111], in test [1], the inhibition at 1 µM lay within 60 to 90%. The IC50 in test [2] was found to be 57.6 ± 25.9 nM.

Take `O=C1CCC(N2C(=O)c3ccc(C(=O)NC[C@H]4CC[C@H](CNC(=O)Nc5nccc6ccccc56)CC4)cc3C2=O)C(=O)N1` (stereo partly shown) [A51]: the inhibition at 1 µM in test [1] was in the range of 60 to 90%. Besides, the IC50 in test [2] turned out to be 336 ± 30 nM.

Take `O=C1CCC(N2C(=O)c3ccc(C(=O)NCc4ccc(CN(CCc5cccc6ccccc56)C5CC5)cc4)cc3C2=O)C(=O)N1` (stereo not shown) [A88]: the inhibition at 1 µM in test [1] was 60 to 90%. The IC50 in test [2] is 83.1 nM.
